In ChEMBL document CHEMBL3991601, “The target landscape of clinical kinase drugs” (Science, 2017):
Active and inactive are the calls of the source. For most assays here, no stated cut-off is given here; in the data, actives have a measured Kd and inactives only a lower limit.

Experiments:
[1] = molecular target: T1, Peroxisomal acyl-coenzyme A oxidase 3 (Homo sapiens, UniProt O15254)
T1 sequence (O15254 whole entry): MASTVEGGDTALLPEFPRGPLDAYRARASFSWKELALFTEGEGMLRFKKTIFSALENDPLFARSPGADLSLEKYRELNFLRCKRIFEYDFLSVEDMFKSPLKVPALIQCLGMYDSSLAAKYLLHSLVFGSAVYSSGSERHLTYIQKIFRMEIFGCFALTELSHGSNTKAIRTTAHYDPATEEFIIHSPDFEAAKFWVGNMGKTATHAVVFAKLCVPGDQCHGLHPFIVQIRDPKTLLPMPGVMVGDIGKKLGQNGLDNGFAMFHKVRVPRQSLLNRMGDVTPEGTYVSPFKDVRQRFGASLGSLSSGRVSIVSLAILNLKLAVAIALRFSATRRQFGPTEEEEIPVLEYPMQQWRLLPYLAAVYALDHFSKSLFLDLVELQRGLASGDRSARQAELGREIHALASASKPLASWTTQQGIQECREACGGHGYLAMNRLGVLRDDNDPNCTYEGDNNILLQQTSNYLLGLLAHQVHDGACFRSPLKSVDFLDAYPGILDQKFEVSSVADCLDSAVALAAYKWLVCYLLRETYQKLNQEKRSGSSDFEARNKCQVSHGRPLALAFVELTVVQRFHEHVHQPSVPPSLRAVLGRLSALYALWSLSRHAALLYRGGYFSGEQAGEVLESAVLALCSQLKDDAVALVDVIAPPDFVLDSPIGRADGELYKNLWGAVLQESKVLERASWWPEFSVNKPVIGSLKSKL

[2] = molecular target: Bone morphogenetic protein receptor type-1B (Homo sapiens, UniProt O00238)
Chain of Bone morphogenetic protein receptor type-1B (O00238 whole entry): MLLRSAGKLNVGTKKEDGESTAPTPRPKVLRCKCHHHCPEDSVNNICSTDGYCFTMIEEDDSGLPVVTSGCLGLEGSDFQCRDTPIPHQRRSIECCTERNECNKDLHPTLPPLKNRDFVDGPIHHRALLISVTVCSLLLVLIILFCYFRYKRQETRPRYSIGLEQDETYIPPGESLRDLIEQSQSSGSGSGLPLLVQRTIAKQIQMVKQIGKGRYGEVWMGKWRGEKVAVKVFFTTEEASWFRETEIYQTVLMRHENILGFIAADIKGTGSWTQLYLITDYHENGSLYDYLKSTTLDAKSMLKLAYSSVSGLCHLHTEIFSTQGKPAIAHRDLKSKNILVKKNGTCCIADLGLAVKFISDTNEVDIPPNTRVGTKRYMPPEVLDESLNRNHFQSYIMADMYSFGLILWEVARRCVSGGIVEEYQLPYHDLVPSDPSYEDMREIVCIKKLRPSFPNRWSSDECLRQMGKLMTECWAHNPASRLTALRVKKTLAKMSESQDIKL

[3] = molecular target: Serine/threonine-protein kinase MRCK gamma (Homo sapiens, UniProt Q6DT37)
Chain of Serine/threonine-protein kinase MRCK gamma (Q6DT37 whole entry): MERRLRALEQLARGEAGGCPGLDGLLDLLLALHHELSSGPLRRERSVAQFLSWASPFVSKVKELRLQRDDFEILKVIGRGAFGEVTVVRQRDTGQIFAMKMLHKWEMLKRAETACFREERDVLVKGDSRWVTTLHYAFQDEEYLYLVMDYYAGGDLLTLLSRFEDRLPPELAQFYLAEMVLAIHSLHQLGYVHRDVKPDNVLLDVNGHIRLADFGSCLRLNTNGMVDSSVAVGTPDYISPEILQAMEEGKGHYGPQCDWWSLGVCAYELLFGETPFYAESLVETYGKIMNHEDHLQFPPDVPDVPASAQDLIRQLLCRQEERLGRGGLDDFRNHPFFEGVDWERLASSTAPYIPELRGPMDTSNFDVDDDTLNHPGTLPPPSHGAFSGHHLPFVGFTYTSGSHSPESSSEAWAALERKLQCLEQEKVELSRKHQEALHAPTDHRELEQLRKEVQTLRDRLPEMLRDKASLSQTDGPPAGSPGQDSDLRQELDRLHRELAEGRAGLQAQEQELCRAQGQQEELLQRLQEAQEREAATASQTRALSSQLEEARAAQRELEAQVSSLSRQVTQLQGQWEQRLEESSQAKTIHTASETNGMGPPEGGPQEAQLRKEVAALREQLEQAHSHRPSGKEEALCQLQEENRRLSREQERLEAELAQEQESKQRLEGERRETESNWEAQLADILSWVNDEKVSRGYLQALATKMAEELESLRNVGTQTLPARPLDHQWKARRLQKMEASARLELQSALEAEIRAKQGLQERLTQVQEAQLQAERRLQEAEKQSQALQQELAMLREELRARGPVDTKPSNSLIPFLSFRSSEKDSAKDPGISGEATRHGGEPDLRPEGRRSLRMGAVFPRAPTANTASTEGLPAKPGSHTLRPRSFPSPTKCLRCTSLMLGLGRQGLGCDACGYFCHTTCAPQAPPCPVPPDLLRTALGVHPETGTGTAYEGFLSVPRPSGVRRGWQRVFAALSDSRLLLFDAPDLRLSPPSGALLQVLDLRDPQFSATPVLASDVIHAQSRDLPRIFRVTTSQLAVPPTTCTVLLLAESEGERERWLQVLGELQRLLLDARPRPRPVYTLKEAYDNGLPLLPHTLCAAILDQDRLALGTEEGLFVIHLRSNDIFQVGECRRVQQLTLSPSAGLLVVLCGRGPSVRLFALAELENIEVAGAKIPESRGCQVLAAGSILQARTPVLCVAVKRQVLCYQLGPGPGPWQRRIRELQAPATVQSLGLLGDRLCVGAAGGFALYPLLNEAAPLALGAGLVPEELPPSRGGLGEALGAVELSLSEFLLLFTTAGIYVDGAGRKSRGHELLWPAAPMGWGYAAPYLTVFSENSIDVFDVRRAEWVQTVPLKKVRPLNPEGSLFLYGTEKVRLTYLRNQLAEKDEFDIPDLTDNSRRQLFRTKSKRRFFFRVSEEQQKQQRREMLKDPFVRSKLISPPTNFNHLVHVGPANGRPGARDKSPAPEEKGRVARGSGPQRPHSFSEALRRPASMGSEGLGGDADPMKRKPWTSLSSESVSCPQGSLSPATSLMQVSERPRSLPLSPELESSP

[4] = molecular target: Cyclin-dependent kinase 3 (Homo sapiens, UniProt Q00526)
Chain of Cyclin-dependent kinase 3 (Q00526 whole entry): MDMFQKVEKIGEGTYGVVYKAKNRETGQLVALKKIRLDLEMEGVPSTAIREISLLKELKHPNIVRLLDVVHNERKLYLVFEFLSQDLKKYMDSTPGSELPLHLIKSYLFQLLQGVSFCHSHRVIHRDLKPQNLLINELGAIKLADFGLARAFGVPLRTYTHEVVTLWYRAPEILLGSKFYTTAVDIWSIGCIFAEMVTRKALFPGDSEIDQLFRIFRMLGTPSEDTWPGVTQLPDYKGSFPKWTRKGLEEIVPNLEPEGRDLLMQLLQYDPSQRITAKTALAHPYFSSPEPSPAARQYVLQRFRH

[5] = molecular target: Mitogen-activated protein kinase 10 (Homo sapiens, UniProt P53779)
Chain of Mitogen-activated protein kinase 10 (P53779 whole entry): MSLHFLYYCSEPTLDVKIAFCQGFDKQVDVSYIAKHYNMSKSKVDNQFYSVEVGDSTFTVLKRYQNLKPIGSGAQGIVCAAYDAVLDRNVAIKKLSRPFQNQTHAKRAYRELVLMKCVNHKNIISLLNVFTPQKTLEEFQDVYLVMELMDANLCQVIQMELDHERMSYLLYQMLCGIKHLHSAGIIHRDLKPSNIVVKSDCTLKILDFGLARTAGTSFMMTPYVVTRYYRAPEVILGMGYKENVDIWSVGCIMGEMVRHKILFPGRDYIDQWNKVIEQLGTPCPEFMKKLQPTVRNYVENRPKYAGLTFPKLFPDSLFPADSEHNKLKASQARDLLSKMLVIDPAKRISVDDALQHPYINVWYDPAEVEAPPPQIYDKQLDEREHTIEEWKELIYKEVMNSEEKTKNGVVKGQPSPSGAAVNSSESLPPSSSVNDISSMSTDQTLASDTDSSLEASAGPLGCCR

[6] = molecular target: Receptor-interacting serine/threonine-protein kinase 3 (Homo sapiens, UniProt Q9Y572)
Chain of Receptor-interacting serine/threonine-protein kinase 3 (Q9Y572 whole entry): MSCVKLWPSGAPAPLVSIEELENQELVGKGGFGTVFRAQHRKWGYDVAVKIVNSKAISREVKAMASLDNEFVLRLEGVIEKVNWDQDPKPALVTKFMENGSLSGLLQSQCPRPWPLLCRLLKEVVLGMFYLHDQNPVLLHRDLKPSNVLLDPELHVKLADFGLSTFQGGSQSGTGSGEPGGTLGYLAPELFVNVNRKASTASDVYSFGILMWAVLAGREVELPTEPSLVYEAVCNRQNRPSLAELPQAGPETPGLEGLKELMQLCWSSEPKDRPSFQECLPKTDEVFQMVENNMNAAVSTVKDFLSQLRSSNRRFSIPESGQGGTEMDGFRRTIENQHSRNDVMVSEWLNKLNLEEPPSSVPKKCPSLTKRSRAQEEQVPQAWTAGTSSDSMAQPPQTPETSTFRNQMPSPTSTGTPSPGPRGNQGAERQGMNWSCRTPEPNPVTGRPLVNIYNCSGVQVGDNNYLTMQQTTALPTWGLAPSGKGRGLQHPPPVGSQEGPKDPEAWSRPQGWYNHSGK

[7] = molecular target: Tyrosine-protein kinase SYK (Homo sapiens, UniProt P43405)
[8] = molecular target: T2, Serine/threonine-protein kinase TAO2 (Homo sapiens, UniProt Q9UL54)
T2 sequence (Q9UL54 whole entry): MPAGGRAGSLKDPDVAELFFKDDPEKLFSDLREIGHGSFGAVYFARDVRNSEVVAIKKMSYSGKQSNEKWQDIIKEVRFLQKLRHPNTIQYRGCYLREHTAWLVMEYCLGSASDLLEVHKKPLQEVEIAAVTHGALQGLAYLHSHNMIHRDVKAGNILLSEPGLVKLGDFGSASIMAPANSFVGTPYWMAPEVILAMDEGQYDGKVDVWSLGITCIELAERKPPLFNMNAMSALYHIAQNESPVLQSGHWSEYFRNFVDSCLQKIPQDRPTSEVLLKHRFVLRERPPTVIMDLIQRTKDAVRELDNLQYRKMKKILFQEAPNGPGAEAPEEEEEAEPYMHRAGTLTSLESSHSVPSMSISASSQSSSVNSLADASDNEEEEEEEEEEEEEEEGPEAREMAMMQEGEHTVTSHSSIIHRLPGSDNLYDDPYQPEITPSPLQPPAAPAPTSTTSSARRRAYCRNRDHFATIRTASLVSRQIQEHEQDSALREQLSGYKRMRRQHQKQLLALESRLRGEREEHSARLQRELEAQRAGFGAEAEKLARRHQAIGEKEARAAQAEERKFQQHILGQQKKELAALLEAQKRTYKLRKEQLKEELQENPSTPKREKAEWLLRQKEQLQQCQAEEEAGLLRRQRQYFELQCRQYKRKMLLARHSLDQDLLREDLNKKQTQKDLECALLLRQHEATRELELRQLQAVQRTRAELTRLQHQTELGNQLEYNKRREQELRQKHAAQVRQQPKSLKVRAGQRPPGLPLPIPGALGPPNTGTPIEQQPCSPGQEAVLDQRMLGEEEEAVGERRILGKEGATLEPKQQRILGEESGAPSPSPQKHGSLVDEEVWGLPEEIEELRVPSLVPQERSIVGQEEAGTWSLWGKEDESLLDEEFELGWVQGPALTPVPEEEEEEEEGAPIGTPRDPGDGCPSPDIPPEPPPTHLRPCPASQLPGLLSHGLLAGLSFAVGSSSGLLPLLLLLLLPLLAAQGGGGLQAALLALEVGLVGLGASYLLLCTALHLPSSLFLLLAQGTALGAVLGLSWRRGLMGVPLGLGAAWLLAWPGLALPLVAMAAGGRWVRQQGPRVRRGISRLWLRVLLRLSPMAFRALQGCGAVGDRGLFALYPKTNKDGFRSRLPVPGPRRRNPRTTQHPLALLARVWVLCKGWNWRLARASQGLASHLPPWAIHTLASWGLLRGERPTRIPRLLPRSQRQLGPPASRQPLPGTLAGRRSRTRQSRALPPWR

[9] = molecular target: Mitogen-activated protein kinase kinase kinase 20 (Homo sapiens, UniProt Q9NYL2)
Chain of Mitogen-activated protein kinase kinase kinase 20 (Q9NYL2 whole entry): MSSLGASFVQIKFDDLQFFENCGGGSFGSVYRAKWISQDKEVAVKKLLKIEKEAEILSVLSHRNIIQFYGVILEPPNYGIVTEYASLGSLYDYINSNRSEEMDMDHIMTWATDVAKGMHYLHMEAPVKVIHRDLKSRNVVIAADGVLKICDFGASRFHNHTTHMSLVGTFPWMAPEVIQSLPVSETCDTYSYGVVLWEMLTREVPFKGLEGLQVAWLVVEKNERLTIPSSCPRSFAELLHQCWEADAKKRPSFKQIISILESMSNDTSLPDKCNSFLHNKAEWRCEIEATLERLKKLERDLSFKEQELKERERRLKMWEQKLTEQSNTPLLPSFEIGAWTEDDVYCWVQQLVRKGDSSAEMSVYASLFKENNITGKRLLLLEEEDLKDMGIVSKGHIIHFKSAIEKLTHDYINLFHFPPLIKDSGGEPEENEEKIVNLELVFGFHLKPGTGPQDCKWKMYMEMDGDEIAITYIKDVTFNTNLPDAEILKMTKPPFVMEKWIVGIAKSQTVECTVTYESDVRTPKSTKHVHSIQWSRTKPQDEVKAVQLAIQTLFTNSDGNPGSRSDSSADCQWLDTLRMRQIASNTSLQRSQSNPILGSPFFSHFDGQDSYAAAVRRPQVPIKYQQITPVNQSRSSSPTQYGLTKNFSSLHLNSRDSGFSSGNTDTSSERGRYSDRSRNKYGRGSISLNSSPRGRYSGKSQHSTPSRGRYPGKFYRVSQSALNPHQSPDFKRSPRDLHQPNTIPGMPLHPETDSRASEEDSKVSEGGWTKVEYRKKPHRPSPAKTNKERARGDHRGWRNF

[10] = molecular target: T3, Uncharacterized protein FLJ45252 (Homo sapiens, UniProt Q6ZSR9); details: read-out: Kd apparent; k-562, colo 205, sk-n-be(2) and mv-4-11
T3 sequence (Q6ZSR9 whole entry): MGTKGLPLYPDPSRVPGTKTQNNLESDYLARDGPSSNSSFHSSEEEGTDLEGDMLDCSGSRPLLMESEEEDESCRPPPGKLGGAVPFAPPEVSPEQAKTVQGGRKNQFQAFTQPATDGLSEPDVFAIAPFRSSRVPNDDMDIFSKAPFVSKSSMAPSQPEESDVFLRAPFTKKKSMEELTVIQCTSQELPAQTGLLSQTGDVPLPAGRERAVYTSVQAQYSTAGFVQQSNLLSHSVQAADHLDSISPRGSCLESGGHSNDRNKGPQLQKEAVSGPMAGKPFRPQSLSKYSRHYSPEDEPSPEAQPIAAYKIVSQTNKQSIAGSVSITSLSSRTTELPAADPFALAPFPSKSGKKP

Row | Structure (SMILES) | Kd [1] | Kd [2] | Kd [3] | Kd [4] | Kd [5] | Kd [6] | Kd [7] | Kd [8] | Kd [9] | Kd [10]
1 | COc1cc([C@@H]2c3cc4c(cc3[C@H](O)[C@H]3COC(=O)[C@@H]23)OCO4)cc(OC)c1OC [AXL-1717] | > 30 µM (inactive) | > 30 µM (inactive) | > 30 µM (inactive) | > 30 µM (inactive) | > 30 µM (inactive) | > 30 µM (inactive) | > 30 µM (inactive) | > 30 µM (inactive) | > 30 µM (inactive) | > 30 µM (inactive)
2 | CN1CCN(CCOc2cc(OC3CCOCC3)c3c(Nc4c(Cl)ccc5c4OCO5)ncnc3c2)CC1 [SARACATINIB] | > 30 µM (inactive) | 0.029 µM | > 30 µM (inactive) | > 30 µM (inactive) | > 30 µM (inactive) | 1.77 µM (active) | > 30 µM (inactive) | > 30 µM (inactive) | 2.98 µM (active) | > 30 µM (inactive)
3 | CNC(=O)c1cc(Oc2ccc(NC(=O)Nc3cc(C(C)(C)C)nn3-c3ccc4ncccc4c3)c(F)c2)ccn1 [REBASTINIB] | 16.1 µM | > 30 µM (inactive) | > 30 µM (inactive) | 2.65 µM (active) | 0.072 µM | 1.28 µM (active) | 1.83 µM (active) | > 30 µM (inactive) | 0.388 µM (active) | > 30 µM (inactive)
4 | C=CC(=O)N1CCC[C@H](n2c(=O)n(-c3ccc(Oc4ccccc4)cc3)c3c(N)ncnc32)C1 | > 30 µM (inactive) | > 30 µM (inactive) | > 30 µM (inactive) | > 30 µM (inactive) | > 30 µM (inactive) | > 30 µM (inactive) | > 30 µM (inactive) | > 30 µM (inactive) | > 30 µM (inactive) | > 30 µM (inactive)
5 | COc1cc2c(Nc3ccc(Cl)c(Cl)c3F)ncnc2cc1OC[C@@H]1C[C@@H]2CN(C)C[C@@H]2C1 [TESEVATINIB] | > 30 µM (inactive) | > 30 µM (inactive) | > 30 µM (inactive) | > 30 µM (inactive) | > 30 µM (inactive) | 0.366 µM (active) | > 30 µM (inactive) | > 30 µM (inactive) | > 30 µM (inactive) | > 30 µM (inactive)
6 | CO[C@H]1C[C@@H]2CC[C@@H](C)[C@@](O)(O2)C(=O)C(=O)N2CCCC[C@H]2C(=O)O[C@H]([C@H](C)C[C@@H]2CC[C@@H](OC(=O)C(C)(CO)CO)[C@H](OC)C2)CC(=O)[C@H](C)/C=C(\C)[C@@H](O)[C@@H](OC)C(=O)[C@H](C)C[C@H](C)/C=C/C=C/C=C/1C [TEMSIROLIMUS] | > 30 µM (inactive) | > 30 µM (inactive) | > 30 µM (inactive) | > 30 µM (inactive) | > 30 µM (inactive) | > 30 µM (inactive) | > 30 µM (inactive) | > 30 µM (inactive) | > 30 µM (inactive) | > 30 µM (inactive)
7 | Cn1cnc2c(F)c(Nc3ccc(Br)cc3F)c(C(=O)NOCCO)cc21 [BINIMETINIB] | > 30 µM (inactive) | > 30 µM (inactive) | > 30 µM (inactive) | > 30 µM (inactive) | > 30 µM (inactive) | > 30 µM (inactive) | > 30 µM (inactive) | > 30 µM (inactive) | > 30 µM (inactive) | > 30 µM (inactive)
8 | CCOc1cc2ncc(C#N)c(Nc3ccc(F)c(Cl)c3)c2cc1NC(=O)/C=C/CN(C)C [PELITINIB] | > 30 µM (inactive) | > 30 µM (inactive) | > 30 µM (inactive) | > 30 µM (inactive) | > 30 µM (inactive) | > 30 µM (inactive) | > 30 µM (inactive) | > 30 µM (inactive) | 0.875 µM (active) | > 30 µM (inactive)
9 | O=c1[nH]ccc2cc(OC3CCNCC3)ccc12 [SAR-407899 FREE BASE] | > 30 µM (inactive) | > 30 µM (inactive) | > 30 µM (inactive) | > 30 µM (inactive) | > 30 µM (inactive) | > 30 µM (inactive) | > 30 µM (inactive) | > 30 µM (inactive) | > 30 µM (inactive) | 0.013 µM (active)
10 | CNC(=O)c1cccc2cc(Oc3ccnc4cc(OCC5(N)CC5)c(OC)cc34)ccc12 [LUCITANIB] | > 30 µM (inactive) | > 30 µM (inactive) | > 30 µM (inactive) | > 30 µM (inactive) | > 30 µM (inactive) | > 30 µM (inactive) | > 30 µM (inactive) | > 30 µM (inactive) | > 30 µM (inactive) | > 30 µM (inactive)
11 | C=CC(=O)Nc1cc2c(Nc3ccc(F)c(Cl)c3)ncnc2cc1C#CC(C)(C)N1CCN(C)CC1 [AV-412 FREE BASE] | > 30 µM (inactive) | > 30 µM (inactive) | > 30 µM (inactive) | > 30 µM (inactive) | > 30 µM (inactive) | > 30 µM (inactive) | > 30 µM (inactive) | > 30 µM (inactive) | > 30 µM (inactive) | > 30 µM (inactive)

Other lines, results leading:

Row | Kd [1] | Kd [2] | Kd [3] | Kd [4] | Kd [5] | Kd [6] | Kd [7] | Kd [8] | Kd [9] | Kd [10] | Structure (SMILES)
12 | > 30 µM (inactive) | > 30 µM (inactive) | > 30 µM (inactive) | > 30 µM (inactive) | > 30 µM (inactive) | > 30 µM (inactive) | > 30 µM (inactive) | > 30 µM (inactive) | > 30 µM (inactive) | 3.56 µM (active) | Cc1csc(-c2nnc(Nc3ccc(Oc4ncccc4-c4ccnc(N)n4)cc3)c3ccccc23)c1 [AMG-900]
13 | > 30 µM (inactive) | 1.44 µM (active) | > 30 µM (inactive) | > 30 µM (inactive) | > 30 µM (inactive) | 6.45 µM (active) | > 30 µM (inactive) | > 30 µM (inactive) | > 30 µM (inactive) | > 30 µM (inactive) | Nc1ncnc2c1c(-c1cccc(OCc3ccccc3)c1)cn2[C@H]1C[C@@H](CN2CCC2)C1 [AEW-541]
14 | > 30 µM (inactive) | > 30 µM (inactive) | > 30 µM (inactive) | > 30 µM (inactive) | > 30 µM (inactive) | > 30 µM (inactive) | > 30 µM (inactive) | > 30 µM (inactive) | > 30 µM (inactive) | > 30 µM (inactive) | COc1ccc(S(=O)(=O)N(C(C)=O)c2ccccc2/C=C/c2cc[n+]([O-])cc2)cc1 [HMN-214]
